Laboratory results as given in PubChem BioAssay AID743059 (The Scripps Research Institute Molecular Screening Center, 2013).
The source made the active and inactive calls.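 The calls were made as follows: active = EC50 at or below 10 µM; inactive = EC50 above 10 µM.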

Target: Nuclear hormone receptor DAF-12 (Heterodera glycines)
Assay: hgDAF-12 reporter activation EC50 – cell-based, luminescence, HEK293, dose response (AID 743059);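 also: agonist potency for compounds that raise hgDAF-12 reporter luminescence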
Conditions: HEK293 hgDAF-12 reporter, luciferase luminescence

| SMILES | EC50 |
| --- | --- |
| OCc1ccc(N=Nc2ccccc2)cc1 | > 67.5 µM (inactive) |
| Nc1ccc2c(c1)Cc1cc(N)c(Cl)cc1-2 | > 67.4 µM (inactive) |
| C(=N\NC1=Nc2cccc3cccc1c23)/c1ccccc1 | > 67.5 µM (inactive) |
| CCCCCc1nnc(NC(=O)C2=COCCO2)s1 | > 67.6 µM (inactive) |
| C/C(=C\C(=O)c1sccc1Cl)N(C)C | > 67.6 µM (inactive) |
| Nc1nn(-c2cccc(F)n2)cc1-c1ccccc1 | > 67.5 µM (inactive) |
| Cn1c(NC(=O)CCC2CCCCC2)cc(=O)n(C)c1=O | > 67.5 µM (inactive) |
| C=CCN1C(=O)[C@@H](CC(=O)N2CCSCC2)[C@]2(C(=O)OC)CCCCC=C12 | > 67.5 µM (inactive) |
| COc1cccc(-c2nc3ccccc3s2)c1 | > 67.5 µM (inactive) |
| CN(C)c1ccc(N=Nc2nccs2)cc1 | > 67.4 µM (inactive) |
| O=C(NC1CCC1)c1ccc(C#CC2CC2)cn1 | > 67.5 µM (inactive) |
| Oc1[nH]c2ccccc2c1C=Nc1ccccc1 | > 67.5 µM (inactive) |
| C/C(=N/NC(=O)c1cc(C(C)C)[nH]n1)c1cccs1 | > 67.6 µM (inactive) |
| Brc1ccc(-c2noc(-c3ccccn3)n2)o1 | > 67.5 µM (inactive) |
| Cc1cc(C(=O)CSc2cccc[n+]2[O-])c(C)n1-c1ccccc1 | > 67.5 µM (inactive) |
| CC1CCC(NC(=O)c2cccn2C)CC1 (stereo unspecified) | > 67.6 µM (inactive) |
| Cc1cccc(/C(N)=N/OC(=O)c2cccs2)c1 | > 67.5 µM (inactive) |
| CCCn1c(=NC(=O)c2ccco2)c(C(=O)OCC)cc2c(=O)n3ccccc3nc21 | > 67.5 µM (inactive) |
| Cc1c(C(=O)Nc2ccccc2)csc1-c1ccccc1 | > 67.5 µM (inactive) |
| Cc1ccc2oc(-c3cccc(N)c3)nc2c1 | > 67.6 µM (inactive) |
| CC(=Nc1ccc(Cl)cc1N)c1c(O)cc(C)oc1=O | > 67.6 µM (inactive) |

| SMILES | EC50 |
| --- | --- |
| Cc1cc(C(=O)NC2CCCCC2)c(C)n1-c1ccc(F)cc1 | > 67.5 µM (inactive) |
| c1ccc(Nc2nc(-c3ccccc3)ns2)cc1 | > 67.6 µM (inactive) |
| Cn1c(SCc2ccccc2F)nc2cccnc21 | > 67.5 µM (inactive) |
| Clc1ccc(OCCSc2ncccn2)c(Br)c1 | > 67.5 µM (inactive) |
| CN1CCN(/C=N/c2sc3c(c2C#N)CCCCC3)CC1 | > 67.5 µM (inactive) |
| CC(C)C[C@H](NC(=O)OCC1c2ccccc2-c2ccccc21)C(=O)O | > 67.5 µM (inactive) |
| Clc1ccccc1Nc1nnc(-c2ccncc2)s1 | > 67.5 µM (inactive) |
| CCOC(=O)c1c(C)[nH]c(N=Nc2cccc(OC)c2)c1C | > 67.5 µM (inactive) |
| CCOC(=O)c1c(C)oc2c1cc(O)c1ccccc12 | > 67.5 µM (inactive) |
| CCSCC(C)(C)n1[nH]c2ccccc2c1=O | > 67.6 µM (inactive) |
| c1cncc(-c2noc(-c3ccc4ccccc4c3)n2)c1 | > 67.5 µM (inactive) |
| Cc1ccc(-c2nc(Nc3ccccc3)n[nH]2)cc1 | > 67.5 µM (inactive) |
| Cc1ccc(/C=N/NC(=O)c2ccoc2C)s1 | > 67.6 µM (inactive) |
| N#C/C(=N\Nc1ccc(Cl)cc1)C(=N)N1CCCCCC1 | > 67.5 µM (inactive) |
| CCOC(=O)c1cnc(SCc2ccccc2)nc1N | > 67.5 µM (inactive) |
| O=c1[nH]c(=O)n(C2CC(O)C(CO)O2)cc1Br (stereo unspecified) | > 67.6 µM (inactive) |
| N=C1/C(=C/c2ccc(OCc3ccccc3F)cc2)C(=O)N=C2SC(CC(=O)N3CCOCC3)=NN12 | > 67.5 µM (inactive) |
| O=C(Nc1ccn(Cc2ccccc2)n1)c1n[nH]c([N+](=O)[O-])c1Cl | > 67.5 µM (inactive) |
| O=C(CCCc1ccccc1)NC12CC3CC(CC(C3)C1)C2 | > 67.5 µM (inactive) |
| COCCNC(=O)/C(C#N)=C/c1cc(C)n(-c2ccc(C)cc2)c1C | > 67.5 µM (inactive) |
| Oc1ccc(N=Nc2ccc3ccccc3c2)cc1 | > 67.5 µM (inactive) |

| SMILES | EC50 |
| --- | --- |
| Cc1cc(-c2nc3cccnc3s2)ccc1NS(=O)(=O)c1cccs1 | > 67.5 µM (inactive) |
| CCCS(=O)(=O)NCc1cn2c(C)csc2n1 | > 67.5 µM (inactive) |
| C(=C\n1nnc2ccccc21)/c1ccccn1 | > 67.5 µM (inactive) |
| O=C(NCCCn1ccnc1)c1cc(-c2cccs2)on1 | 9.01 µM |
| Cc1ccc(-c2csc(NC(=O)/C=C/c3ccco3)c2C(=O)O)cc1 | > 67.6 µM (inactive) |
| CS(=O)(=O)c1ccc2nc(NC(=O)Nc3ccccc3F)sc2c1 | > 67.5 µM (inactive) |
| Cc1scc(C(=O)N/N=C/c2ccsc2)c1C | > 67.6 µM (inactive) |
| c1ccc([C@H]2CN3C(=N2)Sc2ccccc23)cc1 | > 67.1 µM (inactive) |
| CCCCSc1ncnc2c1ncn2C1CCCCO1 (stereo unspecified) | > 67.4 µM (inactive) |
| CC(=Nc1cccc(C)c1)c1sc2ccccc2c1O | > 67.6 µM (inactive) |
| Brc1ccc(-c2noc(-c3ccccc3)n2)o1 | > 67.6 µM (inactive) |
| CCOc1ccc(-c2c(=O)n(O)c3ccccc3[n+]2[O-])cc1 | inactive |
| CCc1cc(C(=O)Nc2ncccc2O)sc1C | > 67.5 µM (inactive) |
| Cc1cccc(N=Nc2cnc(N)s2)c1 | > 67.6 µM (inactive) |
| O=C(CC(=O)c1cccs1)c1ccncc1 | > 67.5 µM (inactive) |
| Cc1ccc(-c2cn3cccnc3n2)cc1 | > 67.6 µM (inactive) |
| COc1ccc(Nc2nccc(-c3cccc(N)c3)n2)cc1 | > 67.5 µM (inactive) |
| CC(=Nc1ccccc1)c1sc2ccccc2c1O | > 67.6 µM (inactive) |
| O=[N+]([O-])c1ccc2c(c1)Nc1nc3ccccc3nc1N2 | > 67.5 µM (inactive) |
| Cc1ccc(/C(N)=N/OC(=O)c2cccs2)cc1 | > 67.6 µM (inactive) |
| N=C1c2ccccc2CN1CC(=O)c1ccccc1 | > 67.6 µM (inactive) |

| SMILES | EC50 |
| --- | --- |
| Cc1cccc(NC(=O)c2ccc3ccccc3n2)c1C | > 67.5 µM (inactive) |
| N/C(=N\OC(=O)c1cc(Br)ccc1Cl)c1ccccn1 | > 67.5 µM (inactive) |
| Clc1cccc(-c2nnc(-c3ccccc3)o2)c1 | > 67.5 µM (inactive) |
| Clc1ccccc1Nc1nc2ccccc2o1 | > 67.6 µM (inactive) |
| c1ccc(CSc2ccc(-c3ccccn3)nn2)nc1 | > 67.5 µM (inactive) |
| Cc1nn(C(=O)c2cccs2)c(N)c1-c1ccccc1 | > 67.5 µM (inactive) |
| Cc1c(C(=O)Nc2nccs2)oc2ccccc12 | > 67.6 µM (inactive) |
| Cc1ccc(N=Nc2ccc(O)cc2)c(Br)c1 | > 67.5 µM (inactive) |
| COc1cccc(-c2nc(-c3ccc(Br)o3)no2)c1 | > 67.5 µM (inactive) |
| N#Cc1c(N)nc(N)nc1Nc1ccc(Br)cc1 | > 67.4 µM (inactive) |
| COC(=O)c1sc2nc3c(cc2c1N)CCCC3 | > 67.5 µM (inactive) |
| CC(C)C(N)c1csc(Nc2nncc3ccccc23)n1 (stereo unspecified) | > 67.1 µM (inactive) |
| c1ccc(CN=C2Nc3ccccc3CS2)nc1 | > 67.5 µM (inactive) |
| Cc1cc(NC(=O)CSc2nc3c(cc2C#N)CCC3)no1 | > 67.6 µM (inactive) |
| CCOC(=O)c1cn[nH]c1NC(=S)Nc1ccccc1 | > 67.6 µM (inactive) |
| Nc1ccc(C(=O)Nc2ccccc2N)cc1 | 4.24 µM |
| COCCNC(=O)/C(C#N)=C/c1cc(C)n(C2CCCCC2)c1C | > 67.5 µM (inactive) |
| CN(C)c1ccc(Nc2nc(-c3cccnc3)cs2)cc1 | > 67.5 µM (inactive) |
